Data: ChEMBL document CHEMBL4825728, “Development of succinimide-based inhibitors for the mitochondrial rhomboid protease PARL” (Bioorg Med Chem Lett, 2021)
pIC50: −log10 of the molar value. The source made the active and inactive calls. No cut-off for these calls is given here.

Key:
[1] = Solubility of the compound in HEK-293T cell membrane transfected with FLAG-tagged human PARL; format: ADME, cell membranes
[2] = target: T1, Presenilin-associated rhomboid-like protein, mitochondrial (Homo sapiens) (UniProt Q9H300); assay: Inhibition of FLAG-tagged human PARL transfected in HEK293T cell membrane assessed as inhibition of FP-Rh labeling at 200 uM treated with compound prior to FP-Rh addition by competitive ABPP based analysis; format: cell membranes
T1 sequence (whole entry): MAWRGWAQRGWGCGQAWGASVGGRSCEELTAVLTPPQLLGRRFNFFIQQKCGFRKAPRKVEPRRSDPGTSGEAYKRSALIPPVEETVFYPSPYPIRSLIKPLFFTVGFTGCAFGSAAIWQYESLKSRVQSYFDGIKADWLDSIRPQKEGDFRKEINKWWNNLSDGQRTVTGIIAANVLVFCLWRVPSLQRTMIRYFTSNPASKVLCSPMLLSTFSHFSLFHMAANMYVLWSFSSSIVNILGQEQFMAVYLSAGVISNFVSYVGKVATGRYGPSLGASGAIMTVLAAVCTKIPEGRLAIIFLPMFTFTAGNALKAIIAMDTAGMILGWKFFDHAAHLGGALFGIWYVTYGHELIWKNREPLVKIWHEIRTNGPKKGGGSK

[3] = target: T2, Rhomboid protease GlpG (Escherichia coli (strain K12)) (UniProt P09391); assay: Inhibition of GlpG in Escherichia coli BL21 assessed as inhibition of FP-Rh labeling at 200 uM treated with compound prior to FP-Rh addition by competitive ABPP based analysis
T2 sequence (whole entry): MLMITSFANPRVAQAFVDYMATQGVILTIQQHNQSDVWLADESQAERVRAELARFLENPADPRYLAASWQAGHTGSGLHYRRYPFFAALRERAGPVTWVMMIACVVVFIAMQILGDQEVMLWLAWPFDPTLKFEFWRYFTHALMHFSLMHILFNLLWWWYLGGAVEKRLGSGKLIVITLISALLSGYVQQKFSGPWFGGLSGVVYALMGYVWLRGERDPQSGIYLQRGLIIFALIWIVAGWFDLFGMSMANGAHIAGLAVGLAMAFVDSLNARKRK

[4] = target: T3, Presenilin-associated rhomboid-like protein, mitochondrial (Homo sapiens, UniProt Q9H300); assay: Inhibition of human PARL transfected in HEK293T cell membrane assessed as inhibition of FP-Rh labeling treated with compound for 30 mins prior to FP-Rh addition by competitive ABPP based analysis; format: cell membranes
T3 sequence (Q9H300 whole entry): T1 sequence (whole entry)

Rhomboid protease GlpG = target: T4, Rhomboid protease GlpG (Escherichia coli (strain K12), UniProt P09391); assay: Inhibition of GlpG in Escherichia coli BL21 assessed as inhibition of FP-Rh labeling treated with compound for 30 mins prior to FP-Rh addition by competitive ABPP based analysis
T4 sequence (P09391 whole entry): T2 sequence (whole entry)

[5] = target: T1, Presenilin-associated rhomboid-like protein, mitochondrial (Homo sapiens); assay: Reversible inhibition of FLAG-tagged human PARL transfected in HEK293T cell membrane assessed as FP-Rh labeling at 200 uM treated with compound followed by gel filtration and later incubated for 4 hrs prior to FP-Rh labeling by competitive ABPP based analysis; format: cell membranes; parameters: Activity: scale not given: the % may be the effect or the level left
[6] = target: T1, Presenilin-associated rhomboid-like protein, mitochondrial (Homo sapiens); assay: Inhibition of FLAG-tagged human PARL transfected in HEK293T cell membrane assessed as inhibition of FP-Rh labeling at 100 uM incubated for 24 hrs followed by cells washing and lysis prior to FP-Rh labeling by In situ based analysis; format: cell membranes
[7] = target: T1, Presenilin-associated rhomboid-like protein, mitochondrial (Homo sapiens); assay: Inhibition of FLAG-tagged human PARL transfected in HEK293T cell membrane assessed as inhibition of FP-Rh labeling at 100 uM incubated for 8 hrs followed by cells washing and lysis prior to FP-Rh labeling by In situ based analysis; format: cell membranes
[8] = target: T1, Presenilin-associated rhomboid-like protein, mitochondrial (Homo sapiens); assay: Reversible inhibition of FLAG-tagged human PARL transfected in HEK293T cell membrane assessed as FP-Rh labeling at 200 uM treated with compound followed by gel filtration and later incubated for 4 hrs prior to FP-Rh labeling by western blot analysis; format: cell membranes

## O=C1c2ccccc2C(=O)N1OS(=O)(=O)c1ccccc1
[1]
  solubility: Soluble

## Cc1ccc(S(=O)(=O)N[C@@H](Cc2ccccc2)C(=O)CCl)cc1
[2]
  inhibition: inactive
[3]
  inhibition: inactive

## CS(=O)(=O)N1C(=O)c2ccccc2C1=O
[1]
  solubility: Soluble

## O=C1c2ccccc2C(=O)N1OS(=O)(=O)c1ccc([N+](=O)[O-])cc1
[1]
  solubility: Soluble

## O=C1c2ccccc2C(=O)N1S(=O)(=O)c1ccc(-c2ccccc2)cc1
[1]
  solubility: Soluble

## O=C1CCC(=O)N1S(=O)(=O)c1ccccc1
[4]
  pIC50: 5.37
Rhomboid protease GlpG
  pIC50: < 3.00
[5]
  inhibition: Active
[1]
  solubility: Soluble
[6]
  inhibition: inactive

## COc1ccc(S(=O)(=O)N2C(=O)CCC2=O)cc1
[1]
  solubility: Soluble

## NCCc1ccc(S(=O)(=O)F)cc1
[2]
  inhibition: inactive
[3]
  inhibition: inactive

## COc1ccc(S(=O)(=O)N2C(=O)c3ccccc3C2=O)cc1
[1]
  solubility: Soluble

## O=C1CCC(=O)N1OS(=O)(=O)c1ccc(-c2ccccc2)cc1
[4]
  pIC50: 5.72
Rhomboid protease GlpG
  pIC50: 4.59
[1]
  solubility: Soluble

## CC(C)S(=O)(=O)N1C(=O)CCC1=O
[1]
  solubility: Soluble

## O=C1c2ccccc2C(=O)N1S(=O)(=O)c1ccccc1
[1]
  solubility: Soluble

## O=C1c2ccccc2C(=O)N1S(=O)(=O)c1ccc([N+](=O)[O-])cc1
[1]
  solubility: Soluble

## O=C1c2ccccc2C(=O)N1S(=O)(=O)c1ccc2ccccc2c1
[1]
  solubility: Soluble

## O=C1CCC(=O)N1S(=O)(=O)c1ccc([N+](=O)[O-])cc1
[4]
  pIC50: 6.05
Rhomboid protease GlpG
  pIC50: 3.51
[7]
  inhibition: Active
[1]
  solubility: Soluble
[6]
  inhibition: inactive

## O=C1CCC(=O)N1OS(=O)(=O)c1ccccc1
[4]
  pIC50: 4.70
Rhomboid protease GlpG
  pIC50: 3.92
[7]
  inhibition: > 50%
[5]
  inhibition: Active
[8]
  inhibition: Active
[1]
  solubility: Soluble
[6]
  inhibition: inactive

## O=C1CCC(=O)N1S(=O)(=O)c1ccc(-c2ccccc2)cc1
[4]
  pIC50: 6.15
Rhomboid protease GlpG
  pIC50: 4.17
[1]
  solubility: Soluble

## CC(C)S(=O)(=O)ON1C(=O)c2ccccc2C1=O
[1]
  solubility: Soluble

## O=C1CCC(=O)N1OS(=O)(=O)c1ccc2ccccc2c1
[1]
  solubility: Soluble

## O=C1c2ccccc2C(=O)N1OS(=O)(=O)c1ccc2ccccc2c1
[1]
  solubility: Soluble

## O=C1c2ccccc2C(=O)N1OS(=O)(=O)c1ccc(-c2ccccc2)cc1
[1]
  solubility: Soluble

## CS(=O)(=O)ON1C(=O)c2ccccc2C1=O
[1]
  solubility: Soluble

## O=S(=O)(F)Cc1ccccc1
[2]
  inhibition: inactive
[3]
  inhibition: inactive

## CS(=O)(=O)ON1C(=O)CCC1=O
[1]
  solubility: Soluble

## O=C1CCC(=O)N1OS(=O)(=O)c1ccc([N+](=O)[O-])cc1
[1]
  solubility: Soluble

## O=c1oc(Cl)c(Cl)c2ccccc12
[2]
  inhibition: Active
[3]
  inhibition: Active

## CS(=O)(=O)N1C(=O)CCC1=O
[1]
  solubility: Soluble

## O=C1CCC(=O)N1S(=O)(=O)c1ccc2ccccc2c1
[1]
  solubility: Soluble

## CC(C)S(=O)(=O)N1C(=O)c2ccccc2C1=O
[1]
  solubility: Soluble

## COc1ccc(S(=O)(=O)ON2C(=O)CCC2=O)cc1
[1]
  solubility: Soluble

## CC(C)S(=O)(=O)ON1C(=O)CCC1=O
[1]
  solubility: Soluble

## COc1ccc(S(=O)(=O)ON2C(=O)c3ccccc3C2=O)cc1
[1]
  solubility: Soluble

## O=C(OCN1C(=O)c2ccccc2S1(=O)=O)c1ccccc1Cl
[4]
  pIC50: 5.06
Rhomboid protease GlpG
  pIC50: 5.55
[2]
  inhibition: 100%
[7]
  inhibition: > 50%
[5]
  Activity: 20%
[6]
  inhibition: inactive
[3]
  inhibition: 100%
